Results on 20 molecules are retold here after patent US10696677B2 (Research Triangle Institute, priority 2016, dated 2020).

SMILES strings stand for the structures. Like-named read-outs stand apart in the source and are kept apart here.

One data set concerns MDCK. Description: MDCK BBB Assay. The data set is classed as in vitro ADME. The settings on record: for % Permeable: MDCK BBB assay.
Another data set addresses hCB1 (Homo sapiens, UniProt P21554). Description: radioligand displacement binding at CB1 (membranes of CHO-K1 cells over-expressing receptor).
The next data set addresses hCB2 (Homo sapiens, UniProt P34972). In words: radioligand displacement binding at CB2 ([3H]CP55940, membranes of CHO-K1 cells over-expressing receptor).
Setting [1] is: read-out: Binding affinity (Ki) at hCB1, radioligand displacement, CHO-K1 membranes, average of 3-6 measurements.
[2] abbreviates: read-out: Binding affinity (Ki) at hCB2, displacement of [3H]CP55940, CHO-K1 membranes, average of 3-6 measurements.

Chain of hCB2 (P34972 whole entry): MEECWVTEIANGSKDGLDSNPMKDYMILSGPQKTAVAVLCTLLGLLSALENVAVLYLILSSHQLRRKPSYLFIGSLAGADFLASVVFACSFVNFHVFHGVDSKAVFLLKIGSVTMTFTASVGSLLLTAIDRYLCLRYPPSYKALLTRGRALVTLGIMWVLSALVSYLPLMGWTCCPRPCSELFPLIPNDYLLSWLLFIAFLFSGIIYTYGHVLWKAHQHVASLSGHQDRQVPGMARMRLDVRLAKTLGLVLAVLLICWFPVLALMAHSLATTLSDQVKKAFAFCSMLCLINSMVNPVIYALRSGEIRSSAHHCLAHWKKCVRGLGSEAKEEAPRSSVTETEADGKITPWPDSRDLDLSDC
Chain of hCB1 (P21554 whole entry): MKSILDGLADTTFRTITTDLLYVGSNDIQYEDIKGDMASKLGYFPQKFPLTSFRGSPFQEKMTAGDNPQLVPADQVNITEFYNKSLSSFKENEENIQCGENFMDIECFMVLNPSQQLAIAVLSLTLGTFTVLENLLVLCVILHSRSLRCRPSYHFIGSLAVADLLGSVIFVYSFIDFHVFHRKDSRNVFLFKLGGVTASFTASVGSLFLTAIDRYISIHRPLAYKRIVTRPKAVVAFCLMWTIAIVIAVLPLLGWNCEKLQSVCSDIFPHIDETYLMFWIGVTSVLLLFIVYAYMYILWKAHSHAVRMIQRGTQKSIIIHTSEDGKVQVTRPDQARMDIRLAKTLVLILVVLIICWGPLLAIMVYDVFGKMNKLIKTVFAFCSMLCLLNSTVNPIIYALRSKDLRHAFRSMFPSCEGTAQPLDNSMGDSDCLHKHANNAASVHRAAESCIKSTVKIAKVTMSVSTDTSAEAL
Description for hCB1: (§1) All compounds were characterized by H^1 NMR and evaluated using a calcium mobilization assay. […] Further characterization of select compounds was performed using radioligand displacement of [3H]1 and equilibrium dissociation constant (Ki) values were determined.
Description for hCB2: as §1

For orientation: melting point means the temperature, or range, at which the solid turns liquid. `O=S(=O)(NC1CCN(c2ncnc3c2nc(-c2ccccc2Cl)n3-c2ccc(Cl)cc2)CC1)c1ccc(F)c(F)c1` [Compound 7, N-{1-[8-(2-Chlorophenyl)-9-(4-chlorophenyl)-9H-purin-6-yl]piperidin-4-yl}-3,4-difluorobenzene-1-sulfonamide] gave a melting point of 183 to 184 °C. Further, the “% Permeable” value with MDCK was 0%. Further, in the data set on MDCK (MDCK cells), the “MDCK BBB Assay (Basolateral/Apical Peak Area Ratio) Mean” value is given as 0.
The term Ki denotes a dissociation constant, usually derived from enzyme kinetics or from competition with a known ligand. Take `O/N=C(\c1ccc(F)cc1)C1CCN(c2ncnc3c2nc(-c2ccccc2Cl)n3-c2ccc(Cl)cc2)CC1` [Compound 28, (Z)-{1-[8-(2-chlorophenyl)-9-(4-chlorophenyl)-9H-purin-6-yl]piperidin-4-yl}(4-fluorophenyl)methanone oxime]: the inhibitory constant (Ki) was found to be 3 nM on hCB1 and 11000 nM at hCB2.
The molecule `O=C(Nc1ccc(F)cc1)N1CCN(c2ncnc3c2nc(-c2ccccc2Cl)n3-c2ccc(Cl)cc2)CC1` [Compound 43, 4-[8-(2-Chlorophenyl)-9-(4-chlorophenyl)-9H-purin-6-yl]-N-(4-fluorophenyl)piperazine-1-carboxamide] displayed a melting point of 234 to 235 °C. For the same molecule, the Ki at hCB1 (setting [1]) amounted to 19 nM. The Ki at hCB2 (setting [2]) came out at 2000 nM.
As to `O=C(Nc1ccccc1F)N1CCN(c2ncnc3c2nc(-c2ccccc2Cl)n3-c2ccc(Cl)cc2)CC1` [Compound 56, 4-[8-(2-Chlorophenyl)-9-(4-chlorophenyl)-9H-purin-6-yl]-N-(2-fluorophenyl)piperazine-1-carboxamide], the melting point was 214 to 215 °C. For the same molecule, at hCB1 (setting [1]), the Ki is 6 nM. In addition, on hCB2 (setting [2]), the Ki came out at 1300 nM.
Consider `O=C(Nc1ccc(F)cc1F)N1CCN(c2ncnc3c2nc(-c2ccccc2Cl)n3-c2ccc(Cl)cc2)CC1` [Compound 57, 4-[8-(2-Chlorophenyl)-9-(4-chlorophenyl)-9H-purin-6-yl]-N-(2,4-difluorophenyl)piperazine-1-carboxamide], for which the melting point was 220 to 221 °C. This molecule yielded a Ki at hCB1 of 9 nM. For the same molecule, the Ki on hCB2 (setting [2]) turned out to be 3200 nM.
The molecule `CC(C)(C)OC(=O)N1CCN(c2ncnc3c2nc(-c2ccccc2Cl)n3-c2ccc(Cl)cc2)CC1` [Compound 58, tert-Butyl 4-[8-(2-Chlorophenyl)-9-(4-chlorophenyl)-9H-purin-6-yl]piperazine-1-carboxylate] showed a Ki at hCB2 of 3350 nM. Moreover, the “% Permeable” value with MDCK is given as 3%.
Regarding `O=C(C1COc2ccccc2O1)N1CCN(c2ncnc3c2nc(-c2ccccc2Cl)n3-c2ccc(Cl)cc2)CC1` (stereo not shown) [Compound 61, 8-(2-Chlorophenyl)-9-(4-chlorophenyl)-6-[4-(2,3-dihydro-1,4-benzodioxin-2-ylcarbonyl)piperazin-1-yl]-9H-purine], the inhibitory constant (Ki) was found to be 5.3 nM on hCB1 and 606 nM at hCB2 (setting [2]). For the same molecule, in the data set on MDCK, the “% Permeable” value was found to be 0%.
On to `CCS(=O)(=O)N1CCN(c2ncnc3c2nc(-c2ccccc2Cl)n3-c2ccc(Cl)cc2)CC1` [Compound 78, 8-(2-Chlorophenyl)-9-(4-chlorophenyl)-6-[4-(ethylsulfonyl)piperazin-1-yl]-9H-purine], for which the Ki on hCB1 came out at 2.7 nM; on hCB2 (setting [2]) it was 980 nM. Besides, in the data set with MDCK, the “% Permeable” value is reported as 18%.
For the molecule `CCCS(=O)(=O)N1CCN(c2ncnc3c2nc(-c2ccccc2Cl)n3-c2ccc(Cl)cc2)CC1` [Compound 79, 8-(2-Chlorophenyl)-9-(4-chlorophenyl)-6-[4-(propylsulfonyl)piperazin-1-yl]-9H-purine], the Ki was determined as 1.2 nM at hCB1 (setting [1]) and 848 nM on hCB2 (setting [2]). For the same molecule, the “% Permeable” value in the data set on MDCK stood at 6%.
`O=S(=O)(C1CC1)N1CCN(c2ncnc3c2nc(-c2ccccc2Cl)n3-c2ccc(Cl)cc2)CC1` [Compound 84, 8-(2-Chlorophenyl)-9-(4-chlorophenyl)-6-[4-(cyclopropylsulfonyl)piperazin-1-yl]-9H-purine]: the inhibition constant Ki at hCB1 was 5.3 nM; at hCB2 (setting [2]) it was 2300 nM. For the same molecule, in the data set on MDCK, the “% Permeable” value came out at 4%.
Regarding `CS(=O)(=O)N1CCN(c2ncnc3c2nc(-c2ccccc2Cl)n3-c2ccc(Cl)cc2)CC1` [Compound 86, 8-(2-Chlorophenyl)-9-(4-chlorophenyl)-6-[4-(methylsulfonyl)piperazin-1-yl]-9H-purine], the inhibition constant Ki at hCB1 turned out to be 24.4 nM; at hCB2, 1650 nM. The “% Permeable” value in the data set with MDCK was 14%.
Regarding `O=C(N1CCN(c2ncnc3c2nc(-c2ccccc2Cl)n3-c2ccc(Cl)cc2)CC1)C(F)(F)F` [Compound 87, 8-(2-Chlorophenyl)-9-(4-chlorophenyl)-6-[4-(trifluoroacetyl)piperazin-1-yl]-9H-purine], the Ki on hCB1 (setting [1]) worked out at 1 nM; at hCB2, 134 nM. The “% Permeable” value in the data set on MDCK is given as about 100%.
On to `Cc1ccccc1CN1CCN(c2ncnc3c2nc(-c2ccccc2Cl)n3-c2ccc(Cl)cc2)CC1` [Compound 100, 8-(2-Chlorophenyl)-9-(4-chlorophenyl)-6-[4-(2-methylbenzyl)piperazin-1-yl]-9H-purine], for which the inhibitory constant (Ki) on hCB2 is 1250 nM.
`CCCCC(=O)N1CCN(c2ncnc3c2nc(-c2ccccc2Cl)n3-c2ccc(Cl)cc2)CC1` [Compound 103, 8-(2-Chlorophenyl)-9-(4-chlorophenyl)-6-(4-pentanoylpiperazin-1-yl)-9H-purine]: the inhibition constant (Ki) on hCB1 stood at 5.5 nM; at hCB2 (setting [2]) it was 403 nM. In addition, the “% Permeable” value in the data set on MDCK was 0%.
As for `FC(F)(F)Oc1ccccc1CN1CCN(c2ncnc3c2nc(-c2ccccc2Cl)n3-c2ccc(Cl)cc2)CC1` [Compound 112, 8-(2-Chlorophenyl)-9-(4-chlorophenyl)-6-{4-[2-(trifluoromethoxy)benzyl]piperazin-1-yl}-9H-purine], the melting point is 110 to 111 °C. The molecule also showed an inhibitory constant (Ki) on hCB2 of 76000 nM.
`N=C(Nc1ccc(F)cc1)N1CCN(c2ncnc3c2nc(-c2ccccc2Cl)n3-c2ccc(Cl)cc2)CC1` [Compound 116, 4-[8-(2-chlorophenyl)-9-(4-chlorophenyl)-9H-purin-6-yl]-N-(4-fluorophenyl)piperazine-1-carboximidamide] yielded a Ki at hCB2 of over 6000 nM.
Take `O=C(NC1(C(F)(F)F)CCCC1)N1CCN(c2ncnc3c2nc(-c2ccccc2Cl)n3-c2ccc(Cl)cc2)CC1` [Compound 118, 4-[8-(2-Chlorophenyl)-9-(4-chlorophenyl)-9H-purin-6-yl]-N-[1-(trifluoromethyl)cyclopentyl]piperazine-1-carboxamide]: the melting point lay within 202 to 204 °C. The inhibition constant Ki at hCB1 (setting [1]) is 24 nM. Moreover, the Ki at hCB2 (setting [2]) is 1300 nM.
With `O=C(NC1CCCCC1)N1CCN(c2ncnc3c2nc(-c2ccccc2Cl)n3-c2ccc(Cl)cc2)CC1` [Compound 119, 4-[8-(2-chlorophenyl)-9-(4-chlorophenyl)-9H-purin-6-yl]-N-cyclohexylpiperazine-1-carboxamide], the melting point lay in the range of 228 to 229 °C. Also, the Ki on hCB1 (setting [1]) came out at 1.4 nM. For the same molecule, the inhibitory constant (Ki) at hCB2 (setting [2]) turned out to be 620 nM.
For the molecule `O=C(NCC1CCC(F)(F)CC1)NC1CCN(c2ncnc3c2nc(-c2ccccc2Cl)n3-c2ccc(Cl)cc2)CC1` [Compound 127, 3-{1-[8-(2-Chlorophenyl)-9-(4-chlorophenyl)-9H-purin-6-yl]piperidin-4-yl}-1-[(4,4-difluorocyclohexyl)methyl]urea], the melting point is 135 to 137 °C.
In turn, `O=C(NCc1ccc(F)cc1)NC1CCN(c2ncnc3c2nc(-c2ccccc2Cl)n3-c2ccc(Cl)cc2)CC1` [Compound 128, 3-{1-[8-(2-Chlorophenyl)-9-(4-chlorophenyl)-9H-purin-6-yl]piperidin-4-yl}-1-[(4-fluorophenyl)methyl]urea] yielded a melting point of 184 to 185 °C.
